The record followed here is ChEMBL document CHEMBL2203223, “Identification of novel mPGES-1 inhibitors through screening of a chemical library” (Bioorg Med Chem Lett, 2012).

In the first assay the target is T1, Prostaglandin E synthase (Mus musculus) (UniProt Q9JM51).
T1 sequence (whole entry): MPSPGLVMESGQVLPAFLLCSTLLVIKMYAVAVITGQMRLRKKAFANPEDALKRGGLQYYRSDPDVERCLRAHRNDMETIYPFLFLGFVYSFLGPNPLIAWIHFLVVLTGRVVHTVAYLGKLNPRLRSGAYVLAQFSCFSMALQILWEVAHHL
Briefly: Inhibition of microsomal PGES1 in mouse RAW264.7 cells assessed as inhibition of LPS-induced PGE2 production at 1 uM incubated for 1 hr prior to LPS challenge measured after 24 hrs by enzyme immunoassay. The format is cell-based.
What is called inhibition is the relative decrease from the control value, in per cent. In the case of `O=C(Oc1ccccc1)N(NS(=O)(=O)c1ccccc1)c1ccccc1`, the inhibition amounted to 59.9%.

A further assay addresses T2, Prostaglandin E synthase (Homo sapiens) (UniProt O14684).
T2 sequence (whole entry): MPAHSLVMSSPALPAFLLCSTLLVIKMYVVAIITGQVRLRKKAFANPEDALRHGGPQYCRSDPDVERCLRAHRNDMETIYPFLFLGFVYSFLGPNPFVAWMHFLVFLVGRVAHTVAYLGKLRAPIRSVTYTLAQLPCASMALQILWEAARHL
Briefly: Inhibition of microsomal PGES1 at 25 uM.
In the case of `CNC(=O)/C(=N\OC)c1ccccc1O`, the inhibition was greater than 80%.

Regarding `CN1C(=O)C(N)NC(=O)c2ccccc21` (racemic), the inhibition is greater than 80%.

For the compound `O=C1Sc2ccccc2C1=O`, the inhibition was greater than 80%.

The compound `COc1ccc(OC(=O)Nc2ccccc2)cc1` displayed an inhibition greater than 80%.

For a further assay, the target named is T2, Prostaglandin E synthase (Homo sapiens). Briefly: Inhibition of microsomal PGES1 at 10 uM.
The compound `Cc1cccc(NC(=S)N/N=C/c2cccc([N+](=O)[O-])c2)c1` had an inhibition of 90%.

As to `CNC(=O)/C(=N/OC)c1ccccc1CO/N=C(/C)c1cccc(O/C(F)=C(\c2ccc(OC)cc2)C(F)(F)F)c1`, the inhibition was 90%.

Turning to `O=C1C(=O)N(c2ccccc2)c2ccccc21`, the inhibition was 90%.

On to `CN1C(=O)C(NC(=O)Nc2ccccc2Cl)N(C)C(=O)c2ccccc21` (racemic), for which the inhibition was 90%.

Compound `O=C(C=C1c2ccccc2-c2ccccc21)NNC(=O)N(c1ccccc1)c1ccccc1` had an inhibition of 90%.

In the case of `Cc1n[nH]c(=S)n(/N=C/c2cccc([N+](=O)[O-])c2)c1=O`, the inhibition is 90%.

The next assay deals with T1, Prostaglandin E synthase (Mus musculus). Briefly: Inhibition of microsomal PGES1 in mouse RAW264.7 cells assessed as inhibition of LPS-induced PGE2 production at 10 uM incubated for 1 hr prior to LPS challenge measured after 24 hrs by enzyme immunoassay. The format is cell-based.
On to `O=C(Oc1ccccc1)N(NS(=O)(=O)c1ccccc1)c1ccccc1`, for which the inhibition turned out to be 93.3%.
